Results from patent publication US20240277742A1, “TRANSLATION INHIBITOR WITHOUT OCCUPYING RIBOSOME RESOURCES AS ANTI-TUMOR DRUG” (CHI BIOTECH CO., LTD., priority 2022, published 2024).

Assays:
ribosomes = assay: Sucrose density ultracentrifugation (polysome profiling) of drug-treated cell lysates; type: cell-based; settings: methyl aurintricarboxylate 50 μg/mL; Harringtonin 10 μg/mL; Kasugamycin 10 μg/mL; Pateamine A 2 μM; Hippuristanol 1 μM
Protocol: Example 2 Proof that methyl aurintricarboxylate, Kasugamycin and Hippuristanol are all translation inhibitors without occupying ribosome resources Using methods well known to those skilled in the art, sucrose density ultracentrifugation (polysome profiling) was carried out to measure polysomes. Ultracentrifugation was performed on normal cell lysates and drug-treated cell lysates at 15-50% sucrose density gradient, the solution was pumped out slowly, and OD260 nm (260 nm Optical Density) was measured. In FIG. 2A, the black line, gray solid line and gray dashed line are the experimental curves of normal cells, cells treated with methyl aurintricarboxylate (concentration 50 μg/mL) and cells treated with Harringtonin (concentration 10 μg/mL) respectively. In FIG. 2B, the gray solid line, gray dashed line, and black dotted line are the experimental curves of cells treated with Kasugamycin (concentration 10 μg/mL), Pateamine A (concentration 2 μM), and Hippuristanol (concentration 1 μM), respectively. The peak heights of the curves are related to concentration.

[1] = tested on: cancer cells (A549 and H1299); assay: Cell apoptosis, onset concentration comparison under the same conditions; type: cell-based; settings: same experimental conditions as methyl aurintricarboxylate
Protocol: (§1) Cell migration, cell invasion, cell apoptosis, cell colony formation and cytotoxicity experiments were carried out using methods well known to those skilled in the art. […] (3) Cell apoptosis: Cells were fluorescently labeled using Annexin V, and the occurrence of cell apoptosis was tested under a fluorescence microscopy or on a flow cytometer. […] As the concentration of methyl aurintricarboxylate increases (final concentration: 10 μg/mL, 20 μg/mL, 40 μg/mL), the percentage of apoptosis of cancer cells increases. The percentage of apoptosis of cancer cells is positively correlated with the concentration of methyl aurintricarboxylate. Under the same experimental conditions, the onset concentration of aurintricarboxylic acid (0.25-0.5 mg/mL) is 12.5 to 25 times that of methyl aurintricarboxylate.

lung cancer A549 cells = settings: cisplatin concentration adopted (50 μM), from reported procedure; cited from earlier work
[2] = tested on: human breast cancer cell line MDA-MB-468; assay: Cell proliferation by sulforhodamine B assay; type: cell-based; settings: MDA-MB-468, 1 mg/L
Protocol: The human breast cancer cell line MDA-MB-468 was cultured, 1 mg/L Kasugamycin was then added, and cell proliferation was measured by the sulforhodamine B assay well known in the art (see Qin et al., BAPI promotes breast cancer cell proliferation and metastasis by deubiquitinating KLF5, Nature Communications 6:8471).

H1299 lung cancer cells = assay: Nude-mouse lung cancer xenograft model, tumor diameter; type: in vivo, nude mice; settings: gavage once, 10 μg/kg, days 1, 3, 5
Protocol: Using techniques well known in the art, the tumor inhibition assay of Kasugamycin was carried out on a nude-mouse xenograft model. Nude mice were subcutaneously injected with H1299 lung cancer cells. After the tumors formed, kasugamycin was administered (by gavage) once at a dose of 10 μg/kg. On days 1, 3, and 5, the tumor diameters of the nude mice were measured in vivo.

[3] = tested on: human breast cancer cell line MDA-MB-468; assay: Transwell invasion assay; type: cell-based; settings: MDA-MB-468, 50 nM, 24 h
Protocol: (§2) The human breast cancer cell line MDA-MB-468 was incubated and 50 nM Hippuristanol was then added. The well-known Transwell migration and invasion assays were carried out. 100,000 cells were added to the Transwell chamber, migration/invasion was carried out for 24 h, and crystal violet staining was performed.

[4] = tested on: human breast cancer cell line MDA-MB-468; assay: Transwell migration assay; type: cell-based; settings: MDA-MB-468, 50 nM, 24 h
Protocol: as §2

A549 lung cancer cells = assay: Nude-mouse lung cancer xenograft model, tumor diameter; type: in vivo, nude mice; settings: gavage, daily dose 10 mg/kg, days 1, 3, 5
Protocol: Using techniques well known in the art, the tumor inhibition assay of Hippuristanol was carried out on a nude-mouse xenograft model. Nude mice were subcutaneously injected with A549 lung cancer cells. After the tumors formed, Hippuristanol was administered by gavage once at a daily dose of 10 mg/kg. On days 1, 3, and 5, the tumor diameters of the nude mice were measured in vivo.

HBE cells [5] = assay: Cell apoptosis, Annexin V labelling; type: cell-based, human; settings: HBE, 10, 20, 40 μg/mL
Protocol: as §1

[6] = tested on: human normal fibroblasts (primary culture); assay: Apoptosis by Annexin V flow cytometry assay; type: cell-based; settings: 20 μg/mL to 50 μg/mL, 48 h
Protocol: (§3) Apoptosis assay was carried out using human normal fibroblasts (primary culture) as normal controls and ES-2 human ovarian cancer cell line as cancer cells. […] (c) Apoptosis was tested by Annexin V flow cytometry assay. In the figure, cells in the area Q1 are non-apoptotic cells, cells in the area Q3 are early apoptotic (the key area for observing apoptosis), and cells in the area Q2 are late apoptotic, including some necrotic cells.

[7] = tested on: ES-2 human ovarian cancer cell line; assay: Apoptosis by Annexin V flow cytometry assay; type: cell-based
Protocol: as §3

H1299 cells [8] = assay: Agar colony formation assay; type: cell-based; settings: H1299, 20 μg/mL
Protocol: (§4) Cell migration, cell invasion, cell apoptosis, cell colony formation and cytotoxicity experiments were carried out using methods well known to those skilled in the art. […] (4) Cell colony formation: Agar colony formation assay was carried out on A549 and H1299 cells that were untreated and treated with methyl aurintricarboxylate (final concentration 20 μg/mL).

A549 cells [9] = assay: Agar colony formation assay; type: cell-based; settings: A549, 20 μg/mL
Protocol: as §4

[10] = tested on: MHCC97H liver cancer cells; assay: Cell proliferation by CCK-8; type: cell-based; settings: 50 μg/mL or above, dose-effect relationship
Protocol: (§5) The Chinese liver cancer cell lines HCCLM3 and MHCC97H were taken, and cell proliferation was tested with the addition of methyl aurintricarboxylate. […] (b) A methyl aurintricarboxylate solution was added to the culture medium and the final concentrations of methyl aurintricarboxylate reached 10 μg/mL, 20 μg/mL, 50 μg/mL, 80 μg/mL and 120 μg/mL, respectively. The cells were further incubated for […] before sampling. (c) Cell proliferation was tested by CCK-8 (Cell Counting Kit-8).

[11] = tested on: HCCLM3 liver cancer cells; assay: Cell proliferation by CCK-8; type: cell-based; settings: HCCLM3, 50 μg/mL or above, dose-effect relationship
Protocol: as §5

H1299 cells [12] = assay: Cell apoptosis, Annexin V labelling; type: cell-based; settings: H1299, 10, 20, 40 μg/mL, increases with concentration
Protocol: as §1

A549 cells [13] = assay: Cell apoptosis, Annexin V labelling; type: cell-based; settings: A549, 10, 20, 40 μg/mL, increases with concentration
Protocol: as §1

H1299 cells [14] = assay: Transwell invasion assay; type: cell-based; settings: H1299, 20 μg/mL, vs blank control
Protocol: (§6) Cell migration, cell invasion, cell apoptosis, cell colony formation and cytotoxicity experiments were carried out using methods well known to those skilled in the art. […] (2) Cell invasion: Transwell invasion assay was carried out on HBE, A549 and H1299 cells treated with or without methyl aurintricarboxylate (final concentration 20 μg/mL).

A549 cells [15] = assay: Transwell invasion assay; type: cell-based; settings: A549, 20 μg/mL, vs blank control
Protocol: as §6

H1299 cells [16] = assay: Transwell migration assay; type: cell-based; settings: H1299, 20 μg/mL, vs blank control
Protocol: (§7) Cell migration, cell invasion, cell apoptosis, cell colony formation and cytotoxicity experiments were carried out using methods well known to those skilled in the art. […] (1) Cell migration: The Transwell migration assay was carried out to test the migration ability of HBE, A549 and H1299 cells passing pores before and after treatment. The final concentration of methyl aurintricarboxylate was 20 μg/mL.

A549 cells [17] = assay: Transwell migration assay; type: cell-based; settings: A549, 20 μg/mL, vs blank control
Protocol: as §7

HBE cells [18] = assay: Transwell migration assay; type: cell-based, human; settings: 20 μg/mL, vs blank control
Protocol: as §7

For `CC(/C=C/C(C)=C/[C@@H]1Cc2nc(cs2)[C@@H](C)C[C@@H](N)CC(=O)O[C@@H](C)C/C(C)=C/C=C\C(=O)O1)=C\CN(C)C` [Pateamine A], the “polysome profile (OD260 nm peaks of 40S, 60S, 1× and polysomes)” value (shortened to “polysome profile”) (ribosomes) was “peaks of 40S and 60S dominate”.

For `O=C(O)C1=CC(=C(c2ccc(O)c(C(=O)O)c2)c2ccc(O)c(C(=O)O)c2)C=CC1=O` [aurintricarboxylic acid], the “onset concentration (apoptosis)” value [1] was 0.25 to 0.5 mg/mL.

In the case of `N.N.[Cl][Pt][Cl]` [cisplatin], the “inhibition of lung cancer A549 cells” value (lung cancer A549 cells) is listed as 80-90%.

In the case of `C[C@H]1O[C@H](O[C@H]2[C@H](O)[C@@H](O)[C@@H](O)[C@H](O)[C@@H]2O)[C@@H](N)C[C@@H]1NC(=N)C(=O)O` [Kasugamycin], the cell proliferation [2] is reported as “slows down significantly from day 4”, the “polysome profile” value (ribosomes) is reported as “peaks of 40S and 60S dominate” and the “change in tumor diameter” value (H1299 lung cancer cells) is reported as “tumor shrink significantly”.

In the case of `COC(=O)C[C@](O)(CCC(C)(C)O)C(=O)O[C@@H]1C(OC)=C[C@]23CCCN2CCc2cc4c(cc2[C@H]13)OCO4` [Harringtonin], the “polysome profile” value (ribosomes) is reported as “peak of 1× ribosomes is very high”.

In the case of `C[C@H]1C[C@@]2(O[C@H]3C[C@H]4[C@@H]5CC[C@H]6C[C@H](O)CC[C@]6(C)[C@H]5[C@@H](O)C[C@]4(C)[C@H]3[C@@]2(C)O)OC1(C)C` [Hippuristanol], the “polysome profile” value (ribosomes) is reported as “peaks of 40S and 60S dominate”, the cell invasion [3] is reported as “effectively reduce” and the cell migration [4] is reported as “effectively reduce”. The “change in tumor diameter” value (A549 lung cancer cells) was “tumor shrink significantly”.

In the case of `COC(=O)c1cc(/C(=C2/C=CC(=O)C(C(=O)O)=C2)c2ccc(O)c(C(=O)O)c2)ccc1O` [methyl aurintricarboxylate, Methyl aurintricarboxylate], the cell apoptosis (HBE cells [5]) is reported as “will not induce apoptosis”, the “effect on normal cell apoptosis” value [6] is reported as “basically no effect” and the “Percentage of late apoptotic and necrotic cells” value (“Percentage” below) ([7]; 10 μg/mL, 48 h) is reported as 29.1%. For the same molecule, the “late apoptotic+necrotic cells” value ([7]; 20 μg/mL or above, no obvious dose-effect relationship) was “do not increase significantly”, the “Percentage” value ([7]; 20 μg/mL, 48 h) was 17.2% and the “Percentage” value ([7]; 50 μg/mL, 48 h) was 23.0%. The “Percentage” value ([7]; 120 μg/mL, 48 h) was 22.6%, the apoptosis ([7]; ES-2, 5 μg/mL, 48 h) was “significant effect on promoting apoptosis” and the early apoptosis ([7]; ES-2, 20 μg/mL, 48 h) was 67.6%. The apoptosis ([7]; ES-2, concentrations higher than 20 μg/mL, 48 h) was “almost all cells are completely apoptotic”, the “number of colonies/1000 cells” value (H1299 cells [8]) was “significantly reduced” and the “number of colonies/1000 cells” value (A549 cells [9]) was “significantly reduced”. The “inhibition of cell proliferation” value [10] was “obvious inhibitory effect”, the “inhibition of cell proliferation” value [11] was “obvious inhibitory effect” and the cell apoptosis (H1299 cells [12]) was “will induce apoptosis”. For the same molecule, the cell apoptosis (A549 cells [13]) was “will induce apoptosis”, the cell invasion (H1299 cells [14]) was “significantly inhibits the invasion ability” and the cell invasion (A549 cells [15]) was “significantly inhibits the invasion ability”. For the same molecule, the cell migration (H1299 cells [16]) was “significantly inhibits the metastasis ability”, the cell migration (A549 cells [17]) was “significantly inhibits the metastasis ability” and the cell migration (HBE cells [18]) was “little effect”.
